For data set [1], the system named is T cells in tdLN and spleen. In words: T cell phenotypic analysis by flow cytometry in tdLN and spleen of MC38 tumor mice. In kind it is in vivo, mouse. The source says:
(§1) One million MC38 or 4T1 cells were used for inoculation, implanted subcutaneously in the right hind flank of mice. Tumor growth was monitored using electronic calipers and calculated according to the formula: V=length×width^2×0.52. For T cell phenotypic analysis by flow cytometry, spleens and inguinal lymph nodes were harvested 17 days post-treatment initiation. Splenic and tdLN cells were stained with anti-mouse antibodies for flow cytometry analysis. To deplete T cells, mice received intraperitoneal injection of 200 μg anti-CD4 (BioXcell BE0003) and 200 μg anti-CD8 (BioXcell BE0061) antibodies in PBS, a second dose of the antibodies was administered two days later. […] Cell viability was measured with PrestoBlue (Invitrogen). […] Prexasertib was given S.C. at 10 mg/kg. All drugs were given for 12 days.
(§2) The MC38 syngeneic mouse tumor model was used to determine whether VRK2 inhibition alone or in combination with PD-1 blockade would improve anti-tumor immune response (see, e.g., FIG. 3A).

In another data set the test system is 4T1 tumor. The data set is described as follows: 4T1 mouse breast cancer tumor model in BALB/c mice, tumor growth. In kind it is in vivo.
Excerpt: as §1

Data set [2] deals with PAK2 S197 phosphorylation. In words: Western blot of PAK2 S197 phosphorylation in Jurkat T cells following PD-1 ligation. In kind it is cell-based, human. As to the method:
To determine PAK phosphorylation, 5×10^6 Jurkat T cells were washed with cold PBS and resuspended in complete RPMI. The cells were stimulated for 5 minutes with Dynabeads at 37° C. as indicated above (beads/cells ratio of 3:1). The samples were treated with Calyculin A (CST 99025) at 100 nM for 25 minutes at 37° C., washed once with cold PBS and centrifugation at 500×g and lysed with RIPA buffer supplemented with PhosStop (Roche) for 1 hr at 4° C. Following 10 second sonication and centrifugation at 12,000×g for 10 minutes at 4° C., the samples were blotted using Phospho-PAK1 (Ser199/204)/PAK2 (Ser192/197) antibody (Cell Signaling). Blots were imaged and analyzed using Licor Odyssey.
Therefore, it was sought to validate the in silico predictions in Jurkat T cells with and without pharmacological VRK2 inhibition as well as in shRNA VRK2 knockdown Jurkat T cell line.
(Immunoblotting shows a protein as a band on a membrane.)

The test system of a further data set is mouse splenocytes. To be noted: overnight treatment.
In another data set the test system is MC38 tumor. In words: MC38 syngeneic mouse tumor model, tumor growth. In kind it is in vivo.
Excerpt: as §1, §2
Utilizing an immunocompetent syngeneic model, C57BL/6 mice were injected with colon adenocarcinoma cell line MC38 and treated with kinase inhibitors as monotherapy or in combination with a mouse immune checkpoint blocking antibody (clone RMP1.14) for PD-1.

For the next data set, the system named is PD-1 signaling. In words: In vitro ability of PD-1 to inhibit cytokine secretion with IC-261. In kind it is cell-based. The procedure: IL-2, IL-8, and IFN-γ concentrations in the supernatant were measured by enzyme linked immunosorbent assay (ELISA) from BioLegend.
IC-261 (AdooQ®: A15764), a small molecule specific inhibitor of VRK2 was used to evaluate the effect of VRK2 inhibition in tumor growth using mice MC38 syngenetic tumor model. This drug was also used in in vitro experiments where the ability of PD-1 to inhibit cytokine secretion was evaluated.

A further data set has as its system T cells. The data set is described as follows: Toxicity to T cells. In kind it is cell-based.

Entries after “also recorded” stand apart in the source; their conditions may differ.

As for `NC(=O)Nc1cc(-c2cccc(F)c2)sc1C(=O)N[C@H]1CCCNC1` [AZD-7762], the “proportion of CD8 T cells in tumor draining lymph nodes (tdLN)” value in data set [1] (combination of AZD-7762 with PD-1 blockade) is “increased proportion of CD8 T cells”. In data set [1] (combination therapy), the “proportion of CD44+PD-1+ T cells in spleen and tdLN” value was “elevated proportion”; the “proportion of activated CD44+CD69+ CD4+ and CD8+ T cells in the tdLN” value is reported as “significantly increased proportion”. Further, the “LAG-3+ CD8+ T cells” value in data set [1] (combination therapy, tdLN) is on record as “significantly increased”. The “reduction in tumor growth” value in the data set with 4T1 tumor (AZD-7762 alone, 4T1 in BALB/c mice (resistant to PD-1 monotherapy)) is roughly 30%. The “reduction in tumor growth, combination versus AZD-7762 alone” value in the data set with 4T1 tumor (combination of AZD-7762 and anti-PD-1, 4T1 in BALB/c mice) is on record as “similar”. Besides, the “PAK2 S197 phosphorylation following PD-1 ligation” value in data set [2] is “fully inhibited”. Also, in the data set on mouse splenocytes, the “cytotoxicity compared to two other CHK specific inhibitors” value is “less cytotoxicity”. For the same compound, the “MC38 tumor volume compared to Prexasertib (LY2606368) and PF-477,736” value in the data set with MC38 tumor (AZD-7762 25 mg/kg, PF 10 mg/kg, Prexasertib 10 mg/kg, 12 days) is given as “marked decrease in MC38 tumor volume”. In addition, in the data set with MC38 tumor (AZD-7762 in combination treatment with anti-PD-1, MC38 in C57BL/6 mice), the tumor inhibition entry is listed as “around 90%”. Moreover, the “tumor volume compared to vehicle or anti-PD-1 antibody treatment” value with MC38 tumor (AZD-7762 treatment alone, MC38) was “significantly decreased tumor volume”. The “anti-tumor activity after CD4+ and CD8+ T cell depletion” value in the data set with MC38 tumor (MC38 model, T cells depleted with anti-CD4 and anti-CD8 antibodies) was “fully reversed the anti-tumor activity; also recorded: impaired the efficacy”. Moreover, in the data set with MC38 tumor (combination of AZD-7762 with PD-1 blockade, MC38), the “anti-tumor responses compared to PD-1 blockade alone or AZD-7762 treatment alone” value is “augmented anti-tumor responses”. For the same compound, the inhibited tumor growth in the data set on MC38 tumor (monotherapy, 25 mg/kg intraperitoneal (I.P.), MC38 in C57BL/6 mice) is on record as roughly 80%.

Regarding `COc1cc(OC)c(C=C2C(O)=Nc3ccccc32)c(OC)c1` [IC-261], in the data set with PD-1 signaling, the “effect on PD-1 signaling and function (ability of PD-1 to inhibit cytokine secretion)” value was “interfere with PD-1 signaling and function”. For the same compound, the “toxicity to T cells” value in the data set with T cells is given as “not toxic to T cells”. For the same compound, in the data set on MC38 tumor (monotherapy, 5 mg/kg, MC38 in C57BL/6 mice), the “inhibition of tumor growth” value is “inhibition of tumor growth, like anti-PD-1 dosed as monotherapy”.

(Values after patent publication US12491176B2, “Methods, compositions, kits and uses thereof targeting and/or treating VRK2 to enhance effectiveness of immune checkpoint inhibitor(s)” (THE TRUSTEES OF COLUMBIA UNIVERSITY IN THE CITY OF NEW YORK, priority 2021, dated 2025).)
